Like-named read-outs stand apart in the source and are kept apart here.
Assay: Ex vivo biodistribution of 177Lu-labeled ligands in PC-3 tumor-bearing mice
Details: mouse, intravenous; for tissue uptake at 72 h: 72 h pi; for tissue uptake at 120 h: 120 h pi; for tissue uptake at 1 h: 1 h pi; for tissue uptake at 4 h: 4 h pi; for tissue uptake at 24 h: 24 h pi
Description: SPECT/CT imaging was conducted using an MI Labs (Houten, The Netherlands) U-SPECT-II/CT scanner with a custom-made ultra-high sensitivity big mouse collimator (2 mm pinhole size) following published procedure. The experiments were obtained in accordance with the same protocol established in the PET/CT imaging and ex vivo biodistributions section. The mice were used for SPECT/CT imaging and ex vivo biodistributions studies once the tumors reached a diameter of 5–8 mm. PC-3 tumor-bearing mice were sedated (2.5% isoflurane in O2) and injected with 31.4–36.9 MBq of the ^177Lu-labeled ligand through a lateral caudal tail vein. The mouse was imaged at 1, 4, 24, 72, and 120 h pi. At each time point, a 5 min CT scan was performed with 615 μA and 60 kV parameters for localization and attenuation, followed by two 30 min static SPECT scans in list mode with an energy window centered around 208 keV. The U-SPECT II software was used to reconstruct data, and the images were decay corrected to the time of injection with PMOD v 3.402 (PMOD Technologies GmbH, Fallanden, Switzerland).
For ex vivo biodistribution studies, the mice were injected with ~3–5 MBq of the ^177Lu-labeled ligand (n = 5). At 1, 4, 24, 72, and 120 h post-injection, the mice were anesthetized with 2% isoflurane, euthanized by CO2 inhalation, and the tissues/organs of interest were […] for radioactivity counting. The blocking study was performed at 1 h pi via co-injection of the ^177Lu-labeled ligand with 100 μg of [D-Phe^6,Leu-NHEt^13,des-Met^14]Bombesin(6–14).

[1] = heart, n = 5, read-out: Heart uptake
[2] = kidneys, n = 5, read-out: Kidneys uptake
[3] = large intestine, n = 5, read-out: Large intestine uptake
[4] = liver, n = 5, read-out: Liver uptake
[5] = lungs, n = 5, read-out: Lungs uptake
[6] = muscle, n = 5, read-out: Muscle uptake
[7] = pancreas, n = 5, read-out: Pancreas uptake
[8] = small intestine, n = 5, read-out: Small intestine uptake
[9] = spleen, n = 5, read-out: Spleen uptake
[10] = stomach, n = 5, read-out: Stomach uptake
[11] = testes, n = 5, read-out: Testes uptake

- tissue uptake at 72 h [1]: 0.01 %ID/g
- tissue uptake at 120 h [1]: 0.01 %ID/g
- tissue uptake at 1 h (kidneys, 100 ug, blocked (100 µg GRPR antagonist co-injected), read-out: Kidneys uptake): 3.8 ± 0.85 %ID/g
- tissue uptake at 1 h [2]: 3.62 ± 0.86 %ID/g
- tissue uptake at 4 h [2]: 2.85 ± 0.29 %ID/g
- tissue uptake at 24 h [2]: 1.06 ± 0.22 %ID/g
- tissue uptake at 72 h [2]: 0.33 ± 0.03 %ID/g
- tissue uptake at 120 h [2]: 0.15 ± 0.04 %ID/g
- tissue uptake at 1 h (large intestine, 100 ug, blocked (100 µg GRPR antagonist co-injected), read-out: Large intestine uptake): 0.22 ± 0.04 %ID/g
- tissue uptake at 1 h [3]: 0.49 ± 0.31 %ID/g
- tissue uptake at 4 h [3]: 0.68 ± 0.12 %ID/g
- tissue uptake at 24 h [3]: 0.43 ± 0.13 %ID/g
- tissue uptake at 72 h [3]: 0.32 ± 0.14 %ID/g
- tissue uptake at 120 h [3]: 0.05 ± 0.02 %ID/g
- tissue uptake at 1 h (liver, 100 ug, blocked (100 µg GRPR antagonist co-injected), read-out: Liver uptake): 0.27 ± 0.03 %ID/g
- tissue uptake at 1 h [4]: 0.47 ± 0.19 %ID/g
- tissue uptake at 4 h [4]: 0.27 ± 0.06 %ID/g
- tissue uptake at 24 h [4]: 0.14 ± 0.07 %ID/g
- tissue uptake at 72 h [4]: 0.06 ± 0.01 %ID/g
- tissue uptake at 120 h [4]: 0.07 ± 0.02 %ID/g
- tissue uptake at 1 h (lungs, 100 ug, blocked (100 µg GRPR antagonist co-injected), read-out: Lungs uptake): 0.54 ± 0.17 %ID/g
- tissue uptake at 1 h [5]: 0.57 ± 0.18 %ID/g
- tissue uptake at 4 h [5]: 0.15 ± 0.04 %ID/g
- tissue uptake at 24 h [5]: 0.06 ± 0.02 %ID/g
- tissue uptake at 72 h [5]: 0.03 ± 0.01 %ID/g
- tissue uptake at 120 h [5]: 0.02 %ID/g
- tissue uptake at 1 h (muscle, 100 ug, blocked (100 µg GRPR antagonist co-injected), read-out: Muscle uptake): 0.15 ± 0.05 %ID/g
- tissue uptake at 1 h [6]: 0.13 ± 0.05 %ID/g
- tissue uptake at 4 h [6]: 0.05 ± 0.01 %ID/g
- tissue uptake at 24 h [6]: 0.01 %ID/g
- tissue uptake at 72 h [6]: 0.01 %ID/g
- tissue uptake at 1 h (pancreas, 100 ug, blocked (100 µg GRPR antagonist co-injected), read-out: Pancreas uptake): 0.51 ± 0.12 %ID/g
- tissue uptake at 1 h [7]: 2.64 ± 0.63 %ID/g
- tissue uptake at 4 h [7]: 1.71 ± 0.08 %ID/g
- tissue uptake at 24 h [7]: 1.04 ± 0.19 %ID/g
- tissue uptake at 72 h [7]: 0.35 ± 0.08 %ID/g
- tissue uptake at 120 h [7]: 0.11 ± 0.01 %ID/g
- tissue uptake at 1 h (small intestine, 100 ug, blocked (100 µg GRPR antagonist co-injected), read-out: Small intestine uptake): 0.23 ± 0.06 %ID/g
- tissue uptake at 1 h [8]: 0.67 ± 0.16 %ID/g
- tissue uptake at 4 h [8]: 0.26 ± 0.04 %ID/g
- tissue uptake at 24 h [8]: 0.13 ± 0.01 %ID/g
- tissue uptake at 72 h [8]: 0.04 ± 0.01 %ID/g
- tissue uptake at 120 h [8]: 0.02 ± 0.01 %ID/g
- tissue uptake at 1 h (spleen, 100 ug, blocked (100 µg GRPR antagonist co-injected), read-out: Spleen uptake): 0.2 ± 0.06 %ID/g
- tissue uptake at 1 h [9]: 0.46 ± 0.2 %ID/g
- tissue uptake at 4 h [9]: 0.13 ± 0.03 %ID/g
- tissue uptake at 24 h [9]: 0.09 ± 0.02 %ID/g
- tissue uptake at 72 h [9]: 0.07 ± 0.02 %ID/g
- tissue uptake at 120 h [9]: 0.05 ± 0.01 %ID/g
- tissue uptake at 1 h (stomach, 100 ug, blocked (100 µg GRPR antagonist co-injected), read-out: Stomach uptake): 0.08 ± 0.03 %ID/g
- tissue uptake at 1 h [10]: 0.29 ± 0.06 %ID/g
- tissue uptake at 4 h [10]: 1.2 ± 1.55 %ID/g
- tissue uptake at 24 h [10]: 0.12 ± 0.05 %ID/g
- tissue uptake at 72 h [10]: 0.07 ± 0.02 %ID/g
- tissue uptake at 120 h [10]: 0.03 ± 0.01 %ID/g
- tissue uptake at 1 h (testes, 100 ug, blocked (100 µg GRPR antagonist co-injected), read-out: Testes uptake): 0.14 ± 0.05 %ID/g
- tissue uptake at 1 h [11]: 0.18 ± 0.03 %ID/g
- tissue uptake at 4 h [11]: 0.04 ± 0.01 %ID/g
- tissue uptake at 24 h [11]: 0.02 %ID/g
- tissue uptake at 72 h [11]: 0.02 ± 0.01 %ID/g
- tissue uptake at 120 h [11]: 0.01 ± 0.01 %ID/g
SMILES: CC(C)C[C@H](NC(=O)[C@H](Cc1cnc[nH]1)N(C)C(=O)CNC(=O)[C@@H](NC(=O)[C@H](C)NC(=O)[C@H](Cc1c[nH]c2ccccc12)NC(=O)[C@H](CCC(N)=O)NC(=O)[C@@H](Cc1ccccc1)NC(=O)CN1CCC(NC(=O)CN2CCN(CC(=O)O)CCN(CC(=O)O)CCN(CC(=O)O)CC2)CC1)C(C)(C)C)C(=O)N1CC(F)(F)C[C@H]1C(N)=O [[^177Lu]Lu-LW02060, metal not drawn]
